According to patent US20230113037A1 (Bayer Aktiengesellschaft, priority 2019, published 2023):

What was measured:
AHR [1] = target: T1, AHR (Homo sapiens, UniProt P35869); assay: In vitro assay 1: antagonism in human cell line (AHR transactivation, firefly luciferase reporter, kynurenic acid prestimulated); assay type: cell-based; settings: AHR Antagonism Human IC50 [M]
T1 construct: U87 MG glioblastoma cells (ATCC #HTB-14) endogenously expressing AHR; endogenous in cells; host or cells: U87 MG glioblastoma cells (ATCC #HTB-14)
T1 sequence (P35869 11-848): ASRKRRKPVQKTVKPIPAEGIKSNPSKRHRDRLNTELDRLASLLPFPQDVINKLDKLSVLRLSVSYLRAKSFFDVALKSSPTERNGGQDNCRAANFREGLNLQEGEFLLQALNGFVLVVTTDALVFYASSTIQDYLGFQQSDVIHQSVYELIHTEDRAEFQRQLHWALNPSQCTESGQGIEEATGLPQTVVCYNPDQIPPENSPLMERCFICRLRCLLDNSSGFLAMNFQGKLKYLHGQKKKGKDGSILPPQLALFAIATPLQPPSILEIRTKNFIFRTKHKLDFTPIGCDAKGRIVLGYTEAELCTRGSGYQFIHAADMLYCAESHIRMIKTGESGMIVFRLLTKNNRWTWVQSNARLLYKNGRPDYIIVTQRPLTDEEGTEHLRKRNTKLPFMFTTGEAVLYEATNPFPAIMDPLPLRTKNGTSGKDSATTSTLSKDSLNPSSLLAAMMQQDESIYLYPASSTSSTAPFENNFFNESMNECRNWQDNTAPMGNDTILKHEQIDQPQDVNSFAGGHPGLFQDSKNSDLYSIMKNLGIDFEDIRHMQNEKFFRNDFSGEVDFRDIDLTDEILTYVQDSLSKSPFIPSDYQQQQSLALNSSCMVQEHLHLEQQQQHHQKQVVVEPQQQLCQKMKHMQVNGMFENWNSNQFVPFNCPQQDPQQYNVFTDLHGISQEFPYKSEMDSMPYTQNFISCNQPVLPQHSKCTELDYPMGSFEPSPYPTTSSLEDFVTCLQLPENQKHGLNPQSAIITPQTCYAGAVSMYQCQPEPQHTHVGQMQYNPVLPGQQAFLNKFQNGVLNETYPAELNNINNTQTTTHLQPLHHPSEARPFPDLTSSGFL
How it was run: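 Antagonism measured as loss of kynurenic acid-driven firefly luciferase from DRE reporter in stably transfected U87 MG cells; constitutive Renilla signal monitors cytotoxicity. Positive/negative control normalization, staurosporine 5 μM with 150 μM kynurenic acid as inhibition control; replicates given as mean or median.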

AHR [2] = target: T2, AHR (Mus musculus, UniProt P30561); assay: In vitro assay 3: antagonism in mouse cell line (AHR transactivation, firefly luciferase reporter, kynurenic acid prestimulated); assay type: cell-based; settings: mouse Hepa 1c1c7 cells, 200 μM kynurenic acid, 20 hours, read-out: AHR Antagonism Mouse IC50
T2 sequence (P30561 1-848 P471L/N533S/M589L): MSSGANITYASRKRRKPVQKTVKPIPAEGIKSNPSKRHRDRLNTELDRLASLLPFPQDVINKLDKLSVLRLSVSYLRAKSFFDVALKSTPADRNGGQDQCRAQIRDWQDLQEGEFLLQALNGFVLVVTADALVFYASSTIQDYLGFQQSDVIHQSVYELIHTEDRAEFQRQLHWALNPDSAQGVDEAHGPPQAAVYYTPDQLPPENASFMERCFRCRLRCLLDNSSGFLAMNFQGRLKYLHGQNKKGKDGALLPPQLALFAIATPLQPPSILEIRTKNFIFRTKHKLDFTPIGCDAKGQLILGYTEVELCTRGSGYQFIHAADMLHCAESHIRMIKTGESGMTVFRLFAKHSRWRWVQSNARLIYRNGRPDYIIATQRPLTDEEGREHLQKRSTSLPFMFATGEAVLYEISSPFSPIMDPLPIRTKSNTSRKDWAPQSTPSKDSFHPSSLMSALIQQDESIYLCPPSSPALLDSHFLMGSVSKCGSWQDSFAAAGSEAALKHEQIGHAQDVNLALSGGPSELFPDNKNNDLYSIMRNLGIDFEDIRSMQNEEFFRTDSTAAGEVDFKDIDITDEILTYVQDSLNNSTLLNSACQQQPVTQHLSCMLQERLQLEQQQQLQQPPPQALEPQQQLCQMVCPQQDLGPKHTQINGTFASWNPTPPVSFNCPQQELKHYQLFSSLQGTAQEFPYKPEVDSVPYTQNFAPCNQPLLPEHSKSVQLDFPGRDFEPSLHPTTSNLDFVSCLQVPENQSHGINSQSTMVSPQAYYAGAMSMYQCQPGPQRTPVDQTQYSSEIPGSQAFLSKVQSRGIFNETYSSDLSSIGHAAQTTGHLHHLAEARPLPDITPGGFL
How it was run: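 Kynurenic acid-prestimulated mouse reporter cells; stable AHR-inducible firefly luc construct with DRE sites in promoter. No-agonist wells = positive inhibition ctrl. Luminescence normalized to pos/neg ctrls; n>1 reported as mean or median.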

Structure (SMILES) | IC50 (AHR [1]) [M] | IC50 (AHR [2]) [nM]
Cn1cc(-c2nc3c4c(Cl)cccc4nc(N[C@@H]4CNCCNC4=O)n3n2)cn1 [Example 417] | 1.11e-06 | 7300
O=C1NCCNC[C@H]1Nc1nc2c(Cl)cccc2c2nc(-c3cccc(F)c3)nn12 [Example 419, (6R)-6-{[7-chloro-2-(3-fluorophenyl)[1,2,4]triazolo[1,5-c]quinazolin-5-yl]amino}-1,4-diazepan-5-one] | 3.49e-09 | 3.46
O=C1NCCNC[C@H]1Nc1nc2c(Cl)cccc2c2nc(-c3ccc(F)cc3)nn12 [Example 420, (6R)-6-{[7-chloro-2-(4-fluorophenyl)[1,2,4]triazolo[1,5-c]quinazolin-5-yl]amino]-1,4-diazepan-5-one] | 9.36e-10 | 0.887
COc1ccc(-c2nc3c4cccc(Cl)c4nc(N[C@@H]4CNCCNC4=O)n3n2)cc1 [Example 421, (6R)-6-{[7-chloro-2-(4-methoxyphenyl)[1,2,4]triazolo[1,5-c]quinazolin-5-yl]amino)-1,4-diazepan-5-one] | 7.09e-10 | 0.69
COc1ccc(-c2nc3c4cccc(C(F)(F)F)c4nc(N[C@@H]4CNCCNC4=O)n3n2)cc1 [Example 422, (6R)-6-{[2-(4-methoxyphenyl)-7-(trifluoromethyl)[1,2,4]triazolo[1,5-c]quinazolin-5-yl]amino}-1,4-diazepan-5-one] | 3.61e-10 | 0.927
O=C1NCCNC[C@H]1Nc1nc2c(C(F)(F)F)cccc2c2nc(-c3ccc(F)cc3)nn12 [Example 423, (6R)-6-{[2-(4-fluorophenyl)-7-(trifluoromethyl)[1,2,4]triazolo[1,5-c]quinazolin-5-yl]amino}-1,4-diazepan-5-one] | 2.81e-10 | 0.349
O=C1NCCNC[C@H]1Nc1nc2c(C(F)(F)F)cccc2c2nc(-c3cccc(F)c3)nn12 [Example 424, (6R)-6-{[2-(3-fluorophenyl)-7-(trifluoromethyl)[1,2,4]triazolo[1,5-c]quinazolin-5-yl]amino}-1,4-diazepan-5-one] | 5.89e-10 | 1.69
Cn1cc(-c2nc3c4cccc(C(F)(F)F)c4nc(N[C@@H]4CNCCNC4=O)n3n2)cn1 [Example 425, (6R)-6-{[2-(1-methyl-1H-pyrazol-4-yl)-7-(trifluoromethyl)[1,2,4]triazolo[1,5-c]quinazolin-5-yl]amino}-1,4-diazepan-5-one] | 6.84e-09 | 23.9
COc1ccc(-c2nc3c4cccc(F)c4nc(N[C@@H]4CNCCNC4=O)n3n2)cc1 [Example 426, (6R)-6-{[7-fluoro-2-(4-methoxyphenyl)[1,2,4]triazolo[1,5-c]quinazolin-5-yl]amino}-1,4-diazepan-5-one] | 1.84e-08 | 14.3
Cn1cc(-c2nc3c4cccc(F)c4nc(N[C@@H]4CNCCNC4=O)n3n2)cn1 [Example 428] | 2.44e-06 | 561
COc1ccc(-c2nc3c4cccc(C(C)C)c4nc(N[C@@H]4CNCCNC4=O)n3n2)cc1 [Example 429, (6R)-6-{[2-(4-methoxyphenyl)-7-(propan-2-yl)[1,2,4]triazolo[1,5-c]quinazolin-5-yl]amino}-1,4-diazepan-5-one] | 7.8e-09 | 70.9
COc1ccc(-c2nc3c4cccc(C5(C(F)(F)F)CC5)c4nc(N[C@@H]4CNCCNC4=O)n3n2)cc1 [Example 431, (6R)-6-({2-(4-methoxyphenyl)-7-[1-(trifluoromethyl)cyclopropyl][1,2,4]triazolo[1,5-c]quinazolin-5-yl}amino)-1,4-diazepan-5-one] | 1.43e-08 | 60.6
COCCn1cc(-c2nc3c4ccccc4nc(N[C@@H]4CCCCNC4=O)n3n2)cn1 [Example 432, (3R)-3-({2-[1-(2-methoxyethyl)-1H-pyrazol-4-yl][1,2,4]triazolo[1,5-c]quinazolin-5-yl}amino)azepan-2-one] | 6.11e-08 | 18.1
COc1ccc(-c2nc3c4ccccc4nc(NC4CCCCCNC4=O)n3n2)cc1 (stereo not drawn) [Example 433, 3-{[2-(4-methoxyphenyl)[1,2,4]triazolo[1,5-c]quinazolin-5-yl]amino}azocan-2-one] | 1.64e-09 | 0.647
CC[C@H](Nc1nc2ccccc2c2nc(-c3ccc(OC)cc3)nn12)C(N)=O [Example 434, (2S)-2-{[2-(4-methoxyphenyl)[1,2,4]triazolo[1,5-c]quinazolin-5-yl]amino}butanamide] | 6.43e-08 | 75
Cn1cc(-c2nc3c4ccccc4nc(N[C@@H]4CCCCNC4=O)n3n2)nn1 [Example 435] | 1.3e-07 | 164
N#Cc1ccc(-c2nc3c4ccccc4nc(N[C@H]4CCCCNC4=O)n3n2)cc1 [Example 437, 4-(5-{[(3S)-2-oxoazepan-3-yl]amino}[1,2,4]triazolo[1,5-c]quinazolin-2-yl)benzonitrile] | 3.65e-08 | 7.87
CCCCNC(=O)CNc1nc2ccccc2c2nc(-c3ccc(S(C)(=O)=O)cc3)nn12 [Example 438, N-butyl-N^2-{2-[4-(methanesulfonyl)phenyl][1,2,4]triazolo[1,5-c]quinazolin-5-yl}glycinamide] | 2.9e-07 | 130
CCCNC(=O)[C@@H](C)Nc1nc2ccccc2c2nc(-c3ccc(S(C)(=O)=O)cc3)nn12 [Example 439, N^2-{2-[4-(methanesulfonyl)phenyl][1,2,4]triazolo[1,5-c]quinazolin-5-yl}-N-propyl-D-alaninamide] | 4.52e-08 | 27
O=C1NCCCC[C@H]1Nc1nc2ccccc2c2nc(-c3ccc(Br)cc3OC(F)(F)F)nn12 [Example 440, (3R)-3-({2-[4-bromo-2-(trifluoromethoxy)phenyl][1,2,4]triazolo[1,5-c]quinazolin-5-yl}amino)azepan-2-one] | 2.43e-09 | 0.642
CCCCNC(=O)[C@H](C)Nc1nc2ccccc2c2nc(-c3cccc(C#N)c3)nn12 [Example 441, N-butyl-N^2-[2-(3-cyanophenyl)[1,2,4]triazolo[1,5-c]quinazolin-5-yl]alaninamide] | 1.36e-07 | 29.3
CC[C@H](Nc1nc2ccccc2c2nc(-c3cccc(C#N)c3)nn12)C(N)=O [Example 442, (2S)-2-{[2-(3-cyanophenyl)[1,2,4]triazolo[1,5-c]quinazolin-5-yl]amino}butanamide] | 4.89e-06 | 264
N#Cc1cccc(-c2nc3c4ccccc4nc(NC4CCCCCNC4=O)n3n2)c1 (stereo not drawn) [Example 443, 3-(5-{[2-oxoazocan-3-yl]amino}[1,2,4]triazolo[1,5-c]quinazolin-2-yl)benzonitrile] | 1.02e-08 | 0.672
CN(C)c1cccc(-c2nc3c4ccccc4nc(N[C@@H]4CCCCNC4=O)n3n2)c1 [Example 446, (3R)-3-({2-[3-(dimethylamino)phenyl][1,2,4]triazolo[1,5-c]quinazolin-5-yl}amino)azepan-2-one] | 2.92e-09 | 0.51
